Results taken from patent US20190224222A1, “METHOD OF INHIBITING QUORUM SENSING USING D-GALACTOSE” (Seoul National University R&DB Foundation, priority 2014, published 2019).

Tests used:
F. nucleatum = assay: Effect on bacterial growth of F. nucleatum (OD 600 nm); format: cell-based; conditions: D-galactose 100 mM, 37° C., anaerobic, 24-48 hours, vs control 0 mM
Experimental: In detail, F. nucleatum was cultured in the presence of 0 mM (control group) and 100 mM of D-galactose at 37° C. under anaerobic conditions for 24-48 hours, and then optical density at 600 nm was determined to measure cell growth.

[1] = test system: T. forsythia (Tf) biofilm; assay: Tf biofilm formation induced by Fn secretory material, transwell, crystal violet; format: cell-based; conditions: for OD590: Fn upper / Tf lower chamber, sugar 2 mM, 48-72 h, Fn/Tf control 0.55, Tf alone 0.17
Experimental: (§1) In order to examine efficacies of quorum sensing inhibitor (QSI) candidates on biofilm formation of periodontopathogenic bacteria which is induced by a secretory material of F. nucleatum (Fn), a test was performed using a transwell system. AI-2 naturally secreted by Fn is contained in the secretory material of Fn. Therefore, in the test using the transwell system, Fn AI-2 was not directly added to bacteria, but Fn was put in an upper chamber and Pg or Tf was put in a lower chamber. Biofilms cultured and formed in the presence or absence of QSI candidates were stained with crystal violet, followed by analysis. These conditions are to evaluate whether Pg or Tf biofilm formation is influenced by not a purified AI-2 but an AI-2-containing secretory material naturally secreted by Fn, and whether QSI candidates such as D-gal is able to inhibit the biofilm formation if the biofilm is then formed.
(§2) More specifically, the transwell system (24-well) has an upper chamber and a lower chamber which are separated from each other by a membrane of 0.4 μm. 500 μl of F. nucelatum (Fn) culture broth (the number of bacteria: 2×10^7 CFU/ml) was cultured in the upper chamber. A glass slip was placed in the lower chamber, and then the same number of P. gingivalis(Pg) or T. forsythia(Tf) was inoculated in 1 ml of medium and cultured for 48-72 hours. The same QSI candidates were added to the upper and lower chambers. As the QSI candidates, 2 mM of sugar (D-rib or D-gal) was used and 2 μM of the furanone compound [(5Z)-4-bromo-5-(bromomethylene)-2(5H)-furanone] was used. In order to examine whether biofilm formation of the bacteria in the lower chamber is influenced by Fn secretory material and QSI candidates, the biofilms formed on the glass slip were stained with crystal violet, and then quantified (see Examples 3 to 5).

[2] = test system: P. gingivalis (Pg) biofilm; assay: Pg biofilm formation induced by Fn secretory material, transwell, crystal violet; format: cell-based; conditions: for OD590 nm: Fn upper / Pg lower chamber, sugar 2 mM, 48-72 h, Fn/Pg control 0.57, Pg alone 0.30
Experimental: as §1, §2

S. mutans (Sm) biofilm [3] = assay: S. mutans biofilm formation, crystal violet staining; format: cell-based, Streptococcus mutans (ATCC 25175); conditions: D-gal 2 mM
Experimental: 2 mL (2×10^7/ml) of the culture broth of a representative cariogenic bacterium S. mutans (Sm) and 2 mL (2×10^7/ml) of the culture broth of one of normal oral flora, S. oxalis (SO) were added to a saliva-coated glass slip (round, 12 mm radius), respectively and cultured with 0 mM or 2 mM of D-galactose to form biofilms. The formed biofilms were stained with crystal violet in the same manner as in Examples 3-6 to test biofilm formation according to the presence of D-galactose. Further, the biofilms were stained with fluorescent materials using the live/dead-BacLight viability kit (Invitrogen, Grand Island, N.Y., USA), followed by analysis. For comparison, 2 μM of the furanone compound was used instead of D-galactose to perform the same test.

[4] = test system: F. nucleatum (Fn) biofilm; assay: Fn biofilm formation induced by Fn AI-2, crystal violet staining; format: cell-based, F. nucleatum (ATCC 25586); conditions: for OD590 nm: Fn + Fn AI-2 10% (v/v), sugar 2 mM, 48-72 h, smaller OD = more inhibition of biofilm, Fn/AI-2 control 1.5, Fn 0.46
Experimental: To test biofilm formation by Fn, a Fn culture broth (2 ml; a negative control group, the number of bacteria: 2×10^7/ml), a mixture of Fn culture broth (2 ml) and F. nucleatum AI-2 (purified from F. nucleatum secretary material of F. nucleatum culture broth using a C18 Sep-Pak reverse-phase column (Waters Co., Milford, Mass.); hereinafter, referred to as ‘Fn AI-2’; 10% (v/v) with respect to the total volume of the mixture with Fn culture broth), or a mixture of Fn culture broth (2 ml) and Fn AI-2 (10% (v/v) with respect to the total volume of the mixture with Fn culture broth) and each of QSI candidates was added to a 24-well plate with a glass slip (round, 12 mm radius), and cultured under anaerobic conditions for 48-72 hours. As the QSI candidates, sugars (D-rib, D-gal, D-Glu, D-Man, or D-ara) were used in an amount of 2 mM, and the furanone compound [(5Z)-4-bromo-5-(bromomethylene)-2(5H)-furanone] was used in an amount of 2 μM.
Biofilms formed on the cover slips were stained with 10% crystal violet [Tris(4-(dimethylamino)phenyl)methylium chloride] for 10 minutes, washed three times with PBS, and destained with 1 ml of acetone-alcohol (20:80, vol/vol). The optical density at 590 nm of the destaining solution containing crystal violet was measured using a microplate reader (a Wallac Victor3 microtiter, PerkinElmer Life Sciences, Waltham, Mass.). The smaller optical density (OD590) measured at 590 nm represents more inhibition of biofilm formation, that is, higher quorum sensing inhibitory effect of the used QSI candidate.

S. mutans (Sm) biofilm [5] = assay: S. mutans biofilm formation, fluorescence staining (confocal); format: cell-based, Streptococcus mutans (ATCC 25175); conditions: D-gal 200 mM vs furanone compound 20 μM
Experimental: Further, the inhibitory effect of D-gal on Sm biofilm formation was examined by fluorescent staining. 2 ml (2×10^7/ml) of Sm culture broth was used, and 200 mM of D-gal and 20 μM of the furanone compound were used. Biofilms formed on the cover slip were stained with fluorescent materials using the live/dead-BacLight viability kit (Invitrogen, Grand Island, N.Y., USA) and observed using a confocal microscope (Carl Zeiss, LSM 700). […] Fluorescence intensities of the obtained individual fluorescence images were quantified using ZEN 2010 program of a confocal microscope, and shown in FIG. 16.

[6] = D-gal 2 mM compared to D-rib 2 mM

| SMILES | effect on bacterial growth (cell growth curve, OD 600 nm), in words (F. nucleatum) | inhibitory effect on Tf biofilm formation induced by Fn secretory material, in words [1, 6] | OD590 [1] | inhibitory effect on Pg biofilm formation induced by Fn secretory material, in words [2, 6] | OD590 nm [2] | OD590 nm (S. mutans (Sm) biofilm [3]; Sm on saliva-coated glass slip, Sm control 0.48) | inhibitory effect on Sm biofilm formation, in words (S. mutans (Sm) biofilm [3]; crystal violet, furanone compound 2 μM) | OD590 nm [4] | QSI inhibitory effect (inhibitory effect on Fn biofilm formation), in words ([4]; crystal violet, sugars 2 mM, compared to negative control Fn/AI-2) | inhibitory effect on Sm biofilm formation, in words (S. mutans (Sm) biofilm [5]) |
| --- | --- | --- | --- | --- | --- | --- | --- | --- | --- | --- |
| O=C[C@H](O)[C@@H](O)[C@@H](O)[C@H](O)CO [D-gal, D-galactose] | does not affect bacterial growth | remarkably excellent inhibitory effect, compared to D-rib | 0.36 | remarkably excellent inhibitory effect, compared to D-rib | 0.45 | 0.37 | significant inhibitory effect | 0.57 | excellent QSI inhibitory effect | superior to that of the furanone compound |
| O=C[C@H](O)[C@H](O)[C@H](O)CO [D-rib, D-ribose, reference compound] | – | – | 0.69 | – | 0.58 | – | – | 0.77 | – | – |
